Results on 2 compounds are retold here after paper PMC3427316 (PLoS ONE, 2012).

Assay [1] relates to H1N1pdm09 virus. The settings on record: human, in vivo.
Assay [2] has as its target NA of D0 isolate A/Paris/7976/2010 (223I 100%, 275H 100%) (Influenza A virus, UniProt V9TJZ0). The assay is classed as biochemical, influenza A(H1N1)pdm09 virus. The following applies: read-out: Ki +/− SD.

For `CC(=O)N[C@H]1[C@H]([C@H](O)[C@H](O)CO)OC(C(=O)O)=C[C@@H]1N=C(N)N` [ZAN, zanamivir], in assay [1], the “impact on viral shedding” value is on record as “no impact” and the symptoms entry is listed as “did not improve”.
For the compound `CCC(CC)O[C@@H]1C=C(C(=O)O)C[C@H](N)[C@H]1NC(C)=O` [OC, oseltamivir carboxylate], in assay [2], the Ki was 0.28 nM.
